How the values were obtained:
Experiment in all cases: combination Emax (second highest fraction inhibited in the dose matrix, 72 h); higher = more inhibition; extreme values may be limits of the assay
[1] = system: NCI-H1793 (Lung Adenocarcinoma)
Method in brief: (§1)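 After 24 hours at 37°C and 5% CO2 in 1536-well plates, cells in DMEM/F12 or RPMI plus 10% FBS received two-drug dose matrices for 72 hours. Viability came from CellTiter-Glo 2.0 luminescence and was scaled as inhibition, anchored at 0 by vehicle wells and at 1 by blank wells. Combination Emax is taken as the second-highest inhibition in the matrix, and Bliss excess as the observed combination effect less EA + EB − EA·EB, with EA and EB the single-agent effects.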

ES7 (Ewing's Sarcoma) = system: ES7 (Ewing's Sarcoma)
Method in brief: as §1

[2] = system: SW780 (Bladder Carcinoma)
Method in brief: as §1

[3] = system: TGBC24TKB (Biliary Tract Carcinoma)
Method in brief: as §1

SN12C (Kidney Carcinoma) = system: SN12C (Kidney Carcinoma)
Method in brief: as §1

[4] = system: CFPAC-1 (Pancreatic Carcinoma)
Method in brief: as §1

[5] = system: LS-513 (Colorectal Carcinoma)
Method in brief: as §1

[6] = system: IHH-4 (Thyroid Gland Carcinoma)
Method in brief: as §1

[7] = system: 697 (B-Lymphoblastic Leukemia)
Method in brief: as §1

[8] = system: DOV13 (Ovarian Carcinoma)
Method in brief: as §1

[9] = system: LU-99A (Non-Small Cell Lung Carcinoma)
Method in brief: as §1

[10] = system: SW1088 (Low Grade Glioma)
Method in brief: as §1

[11] = system: G-292-Clone-A141B1 (Osteosarcoma)
Method in brief: as §1

[12] = system: KARPAS-620 (Plasma Cell Myeloma)
Method in brief: as §1

[13] = system: HCC2157 (Breast Carcinoma)
Method in brief: as §1

RH-1 (Ewing's Sarcoma) = system: RH-1 (Ewing's Sarcoma)
Method in brief: as §1

IGR-1 (Melanoma) = system: IGR-1 (Melanoma)
Method in brief: as §1

[14] = system: SUIT-2 (Pancreatic Carcinoma)
Method in brief: as §1

[15] = system: KARPAS-1106P (B-Cell Non-Hodgkin's Lymphoma)
Method in brief: as §1

NCI-H2369 (Mesothelioma) = system: NCI-H2369 (Mesothelioma)
Method in brief: as §1

Row | Compound | combination Emax [1] | combination Emax (ES7 (Ewing's Sarcoma)) | combination Emax [2] | combination Emax [3] | combination Emax (SN12C (Kidney Carcinoma)) | combination Emax [4] | combination Emax [5] | combination Emax [6] | combination Emax [7] | combination Emax [8] | combination Emax [9] | combination Emax [10] | combination Emax [11] | combination Emax [12] | combination Emax [13] | combination Emax (RH-1 (Ewing's Sarcoma)) | combination Emax (IGR-1 (Melanoma)) | combination Emax [14] | combination Emax [15] | combination Emax (NCI-H2369 (Mesothelioma))
1 | CN(C)CCCOc1ccc(-c2ccc3ncc4c(c3c2)n(C2CCOCC2)c(=O)n4C)cn1 [AZD0156] + O=C(c1cc(Cc2n[nH]c(=O)c3ccccc23)ccc1F)N1CCN(C(=O)C2CC2)CC1 [Olaparib] (first compound max 3 µM, partner max 3 µM) | 0.496 | 0.853 | 0.183 | 0.457 | 0.102 | 0.434 | 0.267 | 0.516 | 0.97 | 0.608 | 0.408 | 0.417 | 0.411 | 0.612 | 0.38 | 0.649 | 0.209 | 0.195 | 0.551 | 0.181
2 | Cc1cc2ncnn2cc1Nc1ncc2c(n1)n(C1CCOCC1)c(=O)n2C [AZD7648] + CCN(CCO)CCCOc1ccc2c(Nc3cc(CC(=O)Nc4cccc(F)c4)[nH]n3)ncnc2c1 [AZD2811] (first compound max 10 µM, 7x7, partner max 1 µM) | 0.26 | 0.855 | 0.29 | 0.566 | 0.262 | 0.281 | 0.507 | 0.454 | 1 | 0.426 | 0.53 | 0.686 | 0.291 | 0.554 | 0.783 | 0.952 | 0.0874 | 0.0971 | 0.526 | 0.235
3 | CN(C)CCCOc1ccc(-c2ccc3ncc4c(c3c2)n(C2CCOCC2)c(=O)n4C)cn1 [AZD0156] + CCN(CCO)CCCOc1ccc2c(Nc3cc(CC(=O)Nc4cccc(F)c4)[nH]n3)ncnc2c1 [AZD2811] (first compound max 1 µM, 7x7, partner max 1 µM) | 0.182 | 0.799 | 0.205 | 0.505 | 0.12 | 0.0885 | 0.508 | 0.322 | 1 | 0.493 | 0.473 | 0.364 | 0.111 | 0.693 | 0.824 | 0.956 | 0.135 | 0.13 | 0.244 | 0.0791
4 | CC(=O)c1c(C)c2cnc(Nc3ccc(N4CCNCC4)cn3)nc2n(C2CCCC2)c1=O [Palbociclib] + Cn1cnc2c(F)c(Nc3ccc(Br)cc3Cl)c(C(=O)NOCCO)cc21 [Selumetinib] (first compound max 10 µM, 7x7, partner max 10 µM) | 0.318 | 0.609 | 0.356 | 0.429 | 0.283 | 0.411 | 0.876 | 0.59 | 0.833 | 0.467 | 0.542 | 0.358 | 0.12 | 0.631 | 0.394 | 0.228 | 0.919 | 0.452 | 0.601 | 0.144
5 | COc1nnc2ccc(N3CCC(c4ccc(OCCN5CCN(C)C(=O)[C@H]5C)cc4)CC3)nn12 [AZD5153] + Cn1cnc2c(F)c(Nc3ccc(Br)cc3Cl)c(C(=O)NOCCO)cc21 [Selumetinib] (first compound max 1 µM, 7x7, partner max 10 µM) | 0.373 | 0.549 | 0.537 | 0.893 | 0.277 | 0.584 | 0.951 | 0.662 | 1 | 0.482 | 0.949 | 0.513 | 0.317 | 0.99 | 1 | 0.315 | 0.938 | 0.558 | 0.699 | 0.368
6 | Cc1cc2ncnn2cc1Nc1ncc2c(n1)n(C1CCOCC1)c(=O)n2C [AZD7648] + O=C(c1cc(Cc2n[nH]c(=O)c3ccccc23)ccc1F)N1CCN(C(=O)C2CC2)CC1 [Olaparib] (first compound max 10 µM, 7x7, partner max 10 µM) | 0.371 | 0.846 | 0.165 | 0.276 | 0.138 | 0.197 | 0.19 | 0.219 | 0.988 | 0.386 | 0.55 | 0.303 | 0.121 | 0.394 | 0.413 | 0.23 | 0.164 | 0.205 | 0.41 | 0.0731
7 | NC1(C(=O)N[C@@H](CCO)c2ccc(Cl)cc2)CCN(c2ncnc3[nH]ccc23)CC1 [Capivasertib] + CCN(CCO)CCCOc1ccc2c(Nc3cc(CC(=O)Nc4cccc(F)c4)[nH]n3)ncnc2c1 [AZD2811] (first compound max 10 µM, 7x7, partner max 1 µM) | 0.289 | 0.86 | 0.28 | 0.58 | 0.27 | 0.319 | 0.532 | 0.618 | 1 | 0.544 | 0.559 | 0.642 | 0.245 | 0.798 | 1 | 0.981 | 0.465 | 0.177 | 0.502 | 0.231
8 | NC1(C(=O)N[C@@H](CCO)c2ccc(Cl)cc2)CCN(c2ncnc3[nH]ccc23)CC1 [Capivasertib] + C[C@@H]1COCCN1C2=NC(=NC(=C2)C3(CC3)[S@](=N)(=O)C)C4=C5C=CNC5=NC=C4 [AZD6738] (first compound max 10 µM, 7x7, partner max 10 µM) | 0.543 | 0.889 | 0.284 | 0.711 | 0.261 | 0.567 | 0.794 | 0.859 | 1 | 0.925 | 0.63 | 0.707 | 0.538 | 0.757 | 1 | 0.97 | 0.713 | 0.493 | 0.694 | 0.338
9 | NC1(C(=O)N[C@@H](CCO)c2ccc(Cl)cc2)CCN(c2ncnc3[nH]ccc23)CC1 [Capivasertib] + COc1nnc2ccc(N3CCC(c4ccc(OCCN5CCN(C)C(=O)[C@H]5C)cc4)CC3)nn12 [AZD5153] (first compound max 10 µM, 7x7, partner max 1 µM) | 0.37 | 0.811 | 0.226 | 0.789 | 0.152 | 0.531 | 0.641 | 0.636 | 0.985 | 0.535 | 0.665 | 0.638 | 0.573 | 0.897 | 1 | 0.699 | 0.406 | 0.535 | 0.979 | 0.268
10 | CC(=O)c1c(C)c2cnc(Nc3ccc(N4CCNCC4)cn3)nc2n(C2CCCC2)c1=O [Palbociclib] + CC1(C)CCC(CN2CCN(c3ccc(C(=O)NS(=O)(=O)c4ccc(NCC5CCOCC5)c([N+](=O)[O-])c4)c(Oc4cnc5[nH]ccc5c4)c3)CC2)=C(c2ccc(Cl)cc2)C1 [Venetoclax] (first compound max 10 µM, 7x7, partner max 1 µM) | 0.197 | 0.644 | 0.108 | 0.274 | 0.0441 | 0.311 | 0.648 | 0.393 | 1 | 0.752 | 0.319 | 0.429 | 0.0906 | 0.842 | 0.601 | 0.277 | 0.764 | 0.0936 | 0.599 | 0.139
11 | CC1(C)CCC(CN2CCN(c3ccc(C(=O)NS(=O)(=O)c4ccc(NCC5CCOCC5)c([N+](=O)[O-])c4)c(Oc4cnc5[nH]ccc5c4)c3)CC2)=C(c2ccc(Cl)cc2)C1 [Venetoclax] + C=CCn1c(=O)c2cnc(Nc3ccc(N4CCN(C)CC4)cc3)nc2n1-c1cccc(C(C)(C)O)n1 [AZD1775] (first compound max 1 µM, partner max 1 µM) | 0.481 | 0.888 | 0.148 | 0.52 | 0.381 | 0.495 | 0.697 | 0.711 | 1 | 0.912 | 0.463 | 0.648 | 0.263 | 0.976 | 0.782 | 1 | 0.396 | 0.596 | 0.917 | 0.27
12 | Cc1c2c(nn1C)CSCc1cc(n(C)n1)CSc1cc(c3ccccc3c1)OCCCc1c(C(=O)O)n(C)c3c-2c(Cl)ccc13 [AZD5991] + C1CN(CCC1(C(=O)N[C@@H](CCO)C2=CC=C(C=C2)Cl)N)C3=NC=NC4=C3C=CN4 [Capivasertib] (first compound max 1 µM, 7x7, partner max 3 µM) | 0.302 | 0.825 | 0.165 | 0.175 | 0.204 | 0.2 | 0.344 |  | 1 | 0.272 | 0.297 | 0.527 | 0.248 | 1 | 0.992 | 0.795 | 0.26 | 0.149 | 0.901 | 0.22
13 | C=CCn1c(=O)c2cnc(Nc3ccc(N4CCN(C)CC4)cc3)nc2n1-c1cccc(C(C)(C)O)n1 [AZD1775] + O=C(c1cc(Cc2n[nH]c(=O)c3ccccc23)ccc1F)N1CCN(C(=O)C2CC2)CC1 [Olaparib] (first compound max 1 µM, partner max 10 µM) | 0.379 |  | 0.209 | 0.687 | 0.335 | 0.476 | 0.827 | 0.695 | 1 | 0.802 | 0.546 | 0.59 | 0.294 | 0.489 | 0.892 | 1 | 0.296 | 0.607 | 0.872 | 0.258
